Reference: patent US20240173289A1, “USE OF OXYMETHYL-MODIFIED DERIVATIVE OF QUERCETIN IN PREPARATION OF DRUG FOR INHIBITING TUMOR CELL PROLIFERATION” (ZHEJIANG UNIVERSITY, priority 2021, published 2024)

How the values were obtained:
[1] = tested on: gastric cancer cells AGS; test: scratch closure test; assay type: cell-based; conditions: 3 mg/L, 24 h
Method: (§1) Cells with a certain density (6×10^5 cells per mL for AGS, T47D, Caco2, BCPAP, GES, HUVEC; 5×10^5 cells per mL for HepG2, MDA-MB-231, BGC-823, A549, PC3, L02; 3×10^5 cells per mL for 143B, HOS, U2, SGC-7901, Hela, BV-2; and 1.8×10^6 cells per mL for WI-38) were spread on a 6-well plate (1 mL per well), added with a DMEM medium containing 10% fetal calf serum, and cultured overnight to form a monolayer of cells. A horizontal scratch was scratched on the monolayer of cells with a pipette tip of 200 μL, washed with PBS 3 times, added into a DMEM medium containing 10% fetal bovine serum, and then added with corresponding dosages of a quercetin 3,3′-dimethyl ether solution (the dosage of osteosarcoma cells was 143B: 4 mg/L, HOS: 4 mg/L, U2: 10 mg/L; the dosage of breast cancer cells was MDA-MB-231: 2 mg/L, T47D: 3 mg/L; the dosage of gastric cancer cells was SGC7901: 6 mg/L, BGC823: 5 mg/L, AGS: 3 mg/L; the dosage of cervical cancer Hela cells was 2 mg/L; the dosage of lung cancer cell A549 was 3 mg/L; the dosage of intestinal cancer cells Caco2 was 4 mg/L; the dosage of mouse glioma BV2 was 4 mg/L; the dosage of human prostate cancer cells PC3 was 6 mg/L; and the dosage of human thyroid cancer cells BCPAP was 2 mg/L), while DMSO was used as a solvent control, and then incubated for 24 h. A scratch width and a measurement width were determined under a microscope, and a scratch closure ratio was calculated as follows: scratch closure ratio=(scratch width−measurement width)/scratch width×100%. Scratch inhibition ratio=(scratch closure ratio of control group−scratch closure ratio of treatment group)/scratch closure ratio of control group×100%.

[2] = tested on: osteosarcoma cells 143B; test: scratch closure test; assay type: cell-based; conditions: Homo sapiens, 4 mg/L, 24 h, versus control group, read-out: inhibition rate of scratch closure
Method: as §1

[3] = tested on: HepG2 transplanted tumors; test: proliferation of HepG2 transplanted tumors in nude mice in vivo; design: species or system BALB/c nude mice; conditions: 50 mg/kg bw·d intraperitoneal
Method: BALB/c nude mice (5 to 6 weeks old), weighing 19 g to 22 g, were purchased from Shanghai Experimental Animal Center, Chinese Academy of Sciences. HepG2 cells were collected in a serum-free DMEM medium to make a cell suspension, and then the cell suspension was injected into an underarm area of each mouse, approximately 2.0×10^6 cells, one site per mouse. All mice were bred in the Experimental Animal Center of Zhejiang University, under the environment of 23° C. to 25° C., humidity 50% to 60%, and cycle of 12 h light illumination/dark 12 h. After tumor formation, the mice were randomly divided into 3 groups with 7 mice in each group. The model group was given saline by intraperitoneal injection; the positive drug group was given tegafur at 10 mg/kg bw·d by intraperitoneal injection; the treatment group was intraperitoneally injected with the quercetin 3,3′-dimethyl ether at 50 mg/kg bw·d. According to the change of tumor volume, after the tumor formed, intraperitoneal injection was conducted every 1 d to 2 d, the tumor volume was measured, and the body weight of the mice was weighed. When there was a significant difference in tumor volume between different treatment groups, the mice were sacrificed by cervical dislocation, and the tumor tissue was carefully peeled off, weighed, and calculated. The formulas were: tumor formation rate (%)=(number of tumor-forming mice in treatment group/number of tumor-forming mice in inoculation group)×100; tumor inhibition rate (%)=(average tumor weight in control group (g)−average tumor weight in administration group (g))/average tumor weight in control group (g)×100. Serum, liver, spleen, and kidney were collected and weighed.

[4] = tested on: breast cancer cells T47D; test: apoptosis, AnnexinV-FITC/PI flow cytometry; assay type: cell-based; conditions: 3 mg/L, 24 h
Description: (§2) The tumor cells growing in the logarithmic phase were digested with trypsin, collected by centrifugation to prepare a suspension, the cells were counted and adjusted to a certain concentration (6×10^5 cells per mL for AGS, T47D, Caco2, BCPAP, GES, HUVEC; 5×10^5 cells per mL for HepG2, MDA-MB-231, BGC-823, A549, PC3, L02; 3×10^5 cells per mL for 143B, HOS, U2, SGC-7901, Hela, BV-2; 1.8×10^6 cells per mL for WI-38), and the cells at a certain concentration were transferred to a 6-well plate at a concentration of 1 mL per well. The cells were cultured in a cell culture incubator for 12 h to allow the cells to adhere to the wall. The corresponding dosages of a quercetin 3,3′-dimethyl ether solution were added (the dosage of osteosarcoma cells was 143B: 4 mg/L, HOS: 4 mg/L, U2: 10 mg/L; the dosage of breast cancer cells was MDA-MB-231: 2 mg/L, T47D: 3 mg/L; the dosage of gastric cancer cells was SGC7901: 6 mg/L, BGC823: 5 mg/L, AGS: 3 mg/L; the dosage of cervical cancer Hela cells was 2 mg/L; the dosage of lung cancer cell A549 was 3 mg/L; the dosage of intestinal cancer cells Caco2 was 4 mg/L; the dosage of mouse glioma BV2 was 4 mg/L; the dosage of human prostate cancer cells PC3 was 6 mg/L; and the dosage of human thyroid cancer cells BCPAP was 2 mg/L). While DMSO was used as a solvent control, and then incubated for 24 h. After acting for 24 h, the cells were collected by centrifugation at 300 g, 4° C. for 5 min, a supernatant was discarded, and the cells were washed twice with pre-cooled PBS, each time with centrifugation at 300 g, 4° C. for 5 min. (1˜5)×10^5 cells were collected and resuspended in […] 1× BindingBuffer. 5 μl of AnnexinV-FITC and 5 μl of PI were added, and mixed well gently. The cells were reacted at room temperature for 10 min in the dark. 400 μl of 1× Binding Buffer was added, mixed well, and the samples were detected by flow cytometry within 1 h. The analysis was conducted according to a standard detection procedure of flow cytometry, at an excitation wavelength of 488 nm, and 20,000 cells were counted, and obtained results were analyzed with cell cycle fitting software ModFit.

[5] = tested on: lung cancer cell A549; test: apoptosis, AnnexinV-FITC/PI flow cytometry; assay type: cell-based; conditions: 3 mg/L, 24 h
Description: as §2

[6] = tested on: HepG2; test: apoptosis, AnnexinV-FITC/PI flow cytometry; assay type: cell-based; conditions: 24 h, dosage not given
Description: as §2

[7] = tested on: osteosarcoma cells HOS; test: apoptosis, AnnexinV-FITC/PI flow cytometry; assay type: cell-based; conditions: 4 mg/L, 24 h
Description: as §2

[8] = tested on: breast cancer cells MDA-MB-231; test: apoptosis, AnnexinV-FITC/PI flow cytometry; assay type: cell-based; conditions: 2 mg/L, 24 h
Description: as §2

[9] = tested on: cervical cancer Hela cells; test: apoptosis, AnnexinV-FITC/PI flow cytometry; assay type: cell-based; conditions: 2 mg/L, 24 h
Description: as §2

[10] = tested on: osteosarcoma cells 143B; test: apoptosis, AnnexinV-FITC/PI flow cytometry; assay type: cell-based; conditions: 4 mg/L, 24 h
Description: as §2

Q: What does the source list for `COc1cc(-c2oc3cc(O)cc(O)c3c(=O)c2OC)ccc1O` [Quercetin 3,3′-dimethyl ether, quercetin 3,3′-dimethyl ether]?
A: Treatment scratch closed % [1]: 31.67 ± 3.39 %; inhibition at 3 µg/mL ([1]; versus control group, read-out: inhibition rate of scratch closure): 60.9%; inhibition at 4 µg/mL [2]: 54.3%; tumor weight, lower than that of the control group [3]: 52.19%; tumor volume ([3]; day 24, 10 injections, HepG2 nude mice): 284.19±85.47 mm^3; tumor weight ([3]; tumor peeled off at sacrifice): 194.57 ± 75.45 mg; Treatment apoptosis ratio % [4]: 16.98 ± 1.37 %; Treatment apoptosis ratio % [5]: 20.28 ± 3.23 %; Treatment apoptosis ratio % [6]: 32.36 ± 5.26 %; Treatment apoptosis ratio % [7]: 23.09 ± 4.36 %; Treatment apoptosis ratio % [8]: 29.85 ± 4.49 %; Treatment apoptosis ratio % [9]: 20.05 ± 4.31 %; Treatment apoptosis ratio % [10]: 24.72 ± 2.82 %
